{"source": "paper PMC3660600", "about": "“Brevilin A, a Novel Natural Product, Inhibits Janus Kinase Activity and Blocks STAT3 Signaling in Cancer Cells” (PLoS ONE, 2013)", "key": {"[1]": {"target": "T1, JAK3 (Homo sapiens, UniProt P52333)", "T1 construct": "JH1 domain", "T1 sequence (P52333 781-1124 limits assumed)": "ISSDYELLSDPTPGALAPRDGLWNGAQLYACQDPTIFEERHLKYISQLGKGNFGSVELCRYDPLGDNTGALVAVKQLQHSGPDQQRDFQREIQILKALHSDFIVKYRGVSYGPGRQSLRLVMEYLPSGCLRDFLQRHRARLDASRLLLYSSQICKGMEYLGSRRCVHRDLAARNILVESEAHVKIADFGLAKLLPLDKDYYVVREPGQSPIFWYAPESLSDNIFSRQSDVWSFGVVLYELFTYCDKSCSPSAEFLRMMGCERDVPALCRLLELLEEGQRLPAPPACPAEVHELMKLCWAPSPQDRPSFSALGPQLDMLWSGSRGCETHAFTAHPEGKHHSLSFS", "test": "total tyrosine, STAT3 and STAT1 phosphorylation in HEK293T over-expressing JAK3-JH1, Western blot", "assay_type": "cell-based"}, "[2]": {"target": "T2, JAK1 (Homo sapiens, UniProt P23458)", "T2 construct": "JH1 domain", "T2 sequence (P23458 875-1153 limits assumed)": "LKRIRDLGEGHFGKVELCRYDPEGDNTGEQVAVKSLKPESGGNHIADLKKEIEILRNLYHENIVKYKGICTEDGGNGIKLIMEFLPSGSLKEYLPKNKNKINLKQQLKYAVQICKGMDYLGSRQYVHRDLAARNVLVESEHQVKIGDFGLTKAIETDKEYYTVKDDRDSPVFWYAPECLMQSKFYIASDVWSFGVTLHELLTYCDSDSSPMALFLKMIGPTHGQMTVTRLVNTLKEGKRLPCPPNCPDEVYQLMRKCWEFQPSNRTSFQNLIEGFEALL", "test": "total tyrosine, STAT3 and STAT1 phosphorylation in HEK293T over-expressing JAK1-JH1, Western blot", "assay_type": "cell-based"}, "[3]": {"target": "T3, Tyk2 (Homo sapiens, UniProt P29597)", "T3 construct": "JH1 tyrosine kinase domain, C-terminal Flag-His tag, purified from HEK293T", "T3 sequence (P29597 880-1187 limits assumed)": "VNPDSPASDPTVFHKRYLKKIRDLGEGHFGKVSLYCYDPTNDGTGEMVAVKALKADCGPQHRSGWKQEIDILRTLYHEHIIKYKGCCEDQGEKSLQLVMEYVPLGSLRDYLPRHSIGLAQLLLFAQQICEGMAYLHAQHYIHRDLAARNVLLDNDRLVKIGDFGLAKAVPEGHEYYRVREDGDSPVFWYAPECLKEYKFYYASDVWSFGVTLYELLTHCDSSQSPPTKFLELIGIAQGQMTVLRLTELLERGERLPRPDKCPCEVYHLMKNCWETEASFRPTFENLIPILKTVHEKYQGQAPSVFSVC", "test": "in vitro kinase assay with purified Tyk2-JH1 and recombinant hSTAT3 substrate, Western blot pTyr705-STAT3 ([…])", "assay_type": "biochemical"}, "[4]": {"target": "c-Src (Homo sapiens, UniProt P12931)", "sequence (P12931 2-536)": "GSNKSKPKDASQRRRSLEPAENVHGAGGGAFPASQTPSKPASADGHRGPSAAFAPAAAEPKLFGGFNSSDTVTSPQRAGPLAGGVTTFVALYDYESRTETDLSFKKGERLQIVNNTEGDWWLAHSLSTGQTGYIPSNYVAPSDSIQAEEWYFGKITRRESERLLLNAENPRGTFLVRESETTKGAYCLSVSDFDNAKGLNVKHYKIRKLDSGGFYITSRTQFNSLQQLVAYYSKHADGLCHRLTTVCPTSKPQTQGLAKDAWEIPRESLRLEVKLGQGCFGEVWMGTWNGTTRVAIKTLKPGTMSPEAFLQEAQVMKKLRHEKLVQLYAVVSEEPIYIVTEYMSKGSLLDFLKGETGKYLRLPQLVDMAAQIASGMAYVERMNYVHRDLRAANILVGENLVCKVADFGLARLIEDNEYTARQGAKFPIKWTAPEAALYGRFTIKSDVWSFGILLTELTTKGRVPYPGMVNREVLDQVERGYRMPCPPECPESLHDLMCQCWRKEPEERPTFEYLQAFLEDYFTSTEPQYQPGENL", "test": "phosphotyrosine Western blot of immunoprecipitated Flag-c-Src from treated HEK293T cells ([…], […] h)", "assay_type": "cell-based"}}, "data": [{"molecule": "C/C=C(/C)C(=O)O[C@H]1[C@@H]2[C@H](C)C(=O)O[C@@H]2C[C@@H](C)[C@@H]2C=CC(=O)[C@]21C", "note": "[Brevilin A]", "values": [{"measurement": "IC50", "setting": "[1]", "result": "IC50 measurements of four JAKs-JH1 truncated kinases."}, {"measurement": "IC50", "setting": "[2]", "result": "IC50 measurements of four JAKs-JH1 truncated kinases."}, {"measurement": "in vitro kinase assay with purified Tyk2-JH1 and recombinant hSTAT3 substrate, W", "setting": "[3]", "result": "Western-Blot showed that Brevilin A inhibited Tyk2-JH1 kinase activity directly"}]}, {"molecule": "Cc1cc(Nc2ncc3cc(-c4c(Cl)cccc4Cl)c(=O)n(C)c3n2)ccc1F", "note": "[PD-180970]", "values": [{"measurement": "phosphotyrosine Western blot of immunoprecipitated Flag-c-Src from treated HEK29", "setting": "[4]", "result": "IP results showed that PD180970 was able to decrease Src phosphorylation while Brevilin A was not"}]}]}
